Measured values as given in patent US5362879A, “4-5-diphenyloxazole derivatives as inhibitors of blood platelet aggregation” (Bristol-Myers Squibb Company, priority 1993, dated 1994).
≈ marks a conversion by molar mass, not a printed value.

How the values were obtained:
human PRP = details: cited from earlier work
platelet aggregation = details: prior art description; cited from earlier work
[1] = tested on: human platelets in platelet-rich-plasma; assay: ADP-induced aggregation of human platelets in platelet-rich plasma (Born aggregometer method as modified by Mustard et al.); type: cell-based
Procedure: Platelet-rich plasma was prepared from human blood drain into syringes containing 1/10 volume of 3.8% sodium citrate. The blood was then subjected to centrifugation for about 10 minutes at 140 g and then the platelet-rich plasma decanted. The test compound was dissolved in DMSO (5 μL) and added to PRP (0.9 mL) 3 minutes prior to the addition of ADP (5.86 μM). The aggregometer method of Born, as modified by Mustard et al., was employed to measure platelet aggregation. Vehicle control trials were performed and compared with the extent of aggregation induced in PRP containing various concentrations of the test compounds. Dose-response curves were thus obtained and IC50 values determined.

SMILES: O=C(O)CCCCCCCOc1nc(-c2ccccc2)c(-c2ccccc2)n1-c1ccccc1 [Octimibate]
- IC50 (human PRP vs ADP) (human PRP): 1 µg/mL (≈ 2.2 µM)
- inhibition of platelet aggregation (in words) (platelet aggregation): broad spectrum inhibitor of platelet aggregation

SMILES: CCOC(=O)N(Cc1nc(-c2ccccc2)c(-c2ccccc2)o1)c1cccc(OCC(=O)O)c1 [Compound 13d, [3-[[(4,5-diphenyl-2-oxazolyl)methyl](ethoxycarbonyl)amino]phenoxy]acetic acid]
- potency relative to the compound of Formula (ii) (inhibition of ADP-induced platelet aggregation) [1]: four times as potent

SMILES: O=C(O)CCCCCCCOc1nc(-c2ccccc2)c(-c2ccccc2)n1-c1ccccc1 [octimibate sodium]
- inhibition of platelet aggregation (in words) (platelet aggregation): possessing anti-aggregatory activity
